Results published in patent US7553974B2, “Crystal of (2R,4R)-monatin potassium salt and sweetener composition containing same” (Ajinomoto Co., Inc., priority 2004, dated 2009).
Counter-ions that a name gives are not always drawn. Like-named read-outs stand apart in the source and are kept apart here.

What was measured:
[1] = type: physicochemical; settings: for transmittance (%): 1 g/dl in H2O, room temperature, 490 nm
Source text: The crystals of the (2R,4R)-monatin dipotassium salt obtained in Example 9, (2R,4R)-monatin, and crystals of the (2R,4R)-monatin monopotassium salt produced according to the production method described in the aforementioned WO03/045914 were subjected to a coloring test. Measurement Method of Coloring Test: • Measurement device: CARY 50 UV-VIS spectrophotometer manufactured by Varian Technologies Japan Limited; • Concentration: 1 g/dl; • Solvent: H2O; • Temperature: room temperature; • Measurement wavelength: 490 nm; and • Measurement interval: 30 minutes.

[2] = type: physicochemical; settings: for area %: HPLC area of (2R,4R)-monatin relative to total peak area, 210 nm, 60° C. preservation sample; for area % / weight change (%): 1 week; for weight change (%): HPLC quantitation value of 60° C. sample, room temperature sample = 100%
Protocol: The crystals of the (2R,4R)-monatin dipotassium salt obtained in Example 1 and Example 9, and crystals of the (2R,4R)-monatin monopotassium salt produced according to the production method described in the aforementioned WO03/045914 were subjected to a preservation stability test. Each sample (50 mg) was placed in a 4 ml vial (with screw cap) and stored at 60° C. and room temperature for 1 week.
A chromatogram for each sample was measured by HPLC, and the HPLC quantitation value of the 60° C. preservation sample, when that of the room temperature preservation sample was 100%, was shown as a weight change. In addition, an HPLC chromatogram of each sample was measured and the ratio of the area value of (2R,4R)-monatin relative to the total area value of the entire peaks detected (detection wavelength: 210 nm) in the 60° C. preservation sample was expressed as the area %.

[3] = type: physicochemical
Protocol: The crystals of the (2R,4R)-monatin dipotassium salt obtained in Example 9 and crystals of the (2R,4R)-monatin monopotassium salt were tested for solubility using the following conditions” • Temperature: 20° C.; and
Solubility measurement method: Two test tubes for each of 0, 20, 40, 60, 80, 100% ethanol, which contained 2 ml thereof were prepared. The crystals of the (2R,4R)-monatin dipotassium salt and crystals of the (2R,4R)-monatin monopotassium salt were added thereto in an amount prohibiting complete dissolution. The test tubes were capped and stirred overnight. Then, the mixture was passed through a filter (0.45 μm) and the filtrate was analyzed.

| Compound | transmittance (%) ([1]; time 0.0 hour) | transmittance (%) ([1]; time 2.0 hour) | transmittance (%) ([1]; time 4.0 hour) | transmittance (%) ([1]; time 6.0 hour) | transmittance (%) ([1]; time 8.0 hour) | transmittance (%) ([1]; time 10.0 hour) | transmittance (%) ([1]; time 12.0 hour) | transmittance (%) ([1]; time 14.0 hour) | transmittance (%) ([1]; time 16.0 hour) | transmittance (%) ([1]; time 18.0 hour) | transmittance (%) ([1]; time 20.0 hour) | transmittance (%) ([1]; time 22.0 hour) | area % [2] [%] | weight change (%) [2] [%] | area % ([2]; dipotassium salt) [%] | weight change (%) ([2]; dipotassium salt) | color stability [1] | preservation stability [2] | solubility [3] |
| --- | --- | --- | --- | --- | --- | --- | --- | --- | --- | --- | --- | --- | --- | --- | --- | --- | --- | --- | --- |
| NC(CC(O)(Cc1c[nH]c2ccccc12)C(=O)O)C(=O)O [(2R,4R)-monatin monopotassium salt] | 100.02 | 99.75 | 99.28 | 98.42 | 97.98 | 96.86 | 95.61 | 94.35 | 92.97 | 91.49 | 90.05 | 88.75 | 99.8 | 100 |  |  |  |  |  |
| N[C@H](C[C@](O)(Cc1c[nH]c2ccccc12)C(=O)[O-])C(=O)[O-].[K+].[K+] [Example 1, (2R,4R)-monatin dipotassium salt] |  |  |  |  |  |  |  |  |  |  |  |  |  |  | 98.4 | 99 |  |  |  |
| N[C@H](C[C@](O)(Cc1c[nH]c2ccccc12)C(=O)[O-])C(=O)[O-].[K+].[K+] [Example 9, (2R,4R)-monatin dipotassium salt] | 99.63 | 99.60 | 99.51 | 99.43 | 99.44 | 99.44 | 99.41 | 99.42 | 99.39 | 99.35 | 99.39 | 99.38 | 99.6 | 103 |  |  | superior | almost of the same level | superior |
